Measured values from ChEMBL document CHEMBL5352456, “Isocyanides in med chem: A scaffold hopping approach for the identification of novel 4-isocyanophenylamides as potent antibacterial agents against methicillin-resistant Staphylococcusaureus” (Eur J Med Chem, 2023).

How the values were obtained:
Assay type in all cases: functional
Conditions in all cases: time 16-20 hrs
Klebsiella pneumoniae = assay: Antibacterial activity against Klebsiella pneumoniae ATCC 700603 assessed as inhibition of bacterial growth measured for 16 to 20 hrs by microdilution assay
Escherichia coli = assay: Antibacterial activity against Escherichia coli ATCC 25922 assessed as inhibition of bacterial growth measured for 16 to 20 hrs by microdilution assay
Staphylococcus aureus [1] = assay: Antibacterial activity against Staphylococcus aureus ATCC 25923 assessed as reduction in microbial growth measured for 16 to 20 hrs by microdilution assay
Staphylococcus aureus [2] = assay: Antibacterial activity against Staphylococcus aureus ATCC 29213 assessed as reduction in microbial growth measured for 16 to 20 hrs by microdilution assay
Pseudomonas aeruginosa = assay: Antibacterial activity against Pseudomonas aeruginosa ATCC 10145 assessed as inhibition of bacterial growth measured for 16 to 20 hrs by microdilution assay
Staphylococcus aureus [3] = assay: Antibacterial activity against Staphylococcus aureus ATCC 6538 assessed as reduction in microbial growth measured for 16 to 20 hrs by microdilution assay
[4] = system: Staphylococcus epidermidis; assay: Antibacterial activity against Staphylococcus epidermidis ATCC 12228 assessed as reduction in microbial growth measured for 16 to 20 hrs by microdilution assay
Staphylococcus aureus [5] = assay: Antibacterial activity against methicillin-resistant Staphylococcus aureus ATCC 33592 assessed as reduction in microbial growth measured for 16 to 20 hrs by microdilution assay
[6] = system: Staphylococcus epidermidis; assay: Antibacterial activity against Staphylococcus epidermidis ATCC 49134 assessed as reduction in microbial growth measured for 16 to 20 hrs by microdilution assay
Staphylococcus aureus [7] = assay: Antibacterial activity against methicillin-resistant Staphylococcus aureus ATCC 43300 assessed as reduction in microbial growth measured for 16 to 20 hrs by microdilution assay
[8] = system: Staphylococcus epidermidis; assay: Antibacterial activity against Staphylococcus epidermidis ATCC 35984 assessed as reduction in microbial growth measured for 16 to 20 hrs by microdilution assay

| Structure (SMILES) | MIC (Klebsiella pneumoniae) | MIC (Escherichia coli) | MIC (Staphylococcus aureus [1]) | MIC (Staphylococcus aureus [2]) | MIC (Pseudomonas aeruginosa) | MIC (Staphylococcus aureus [3]) | MIC [4] | MIC (Staphylococcus aureus [5]) | MIC [6] | MIC (Staphylococcus aureus [7]) | MIC [8] |
| --- | --- | --- | --- | --- | --- | --- | --- | --- | --- | --- | --- |
| [C-]#[N+]c1ccc(C(=O)Nc2ccccc2)cc1 | ≥ 64 µM | ≥ 64 µM | > 8 µM | > 8 µM | ≥ 64 µM | > 8 µM | – | – | – | – | – |
| [C-]#[N+]c1ccc(NC(=O)c2ccc(OC)cc2)cc1 | ≥ 64 µM | ≥ 64 µM | > 8 µM | > 8 µM | ≥ 64 µM | > 8 µM | – | – | – | – | – |
| N#Cc1ccc(NC(=O)Cc2cccc(Cl)c2)cc1 | ≥ 64 µM | ≥ 64 µM | > 8 µM | > 8 µM | ≥ 64 µM | > 8 µM | – | – | – | – | – |
| [C-]#[N+]c1ccc(NC(=O)CCC2CCCC2)cc1 | ≥ 64 µM | ≥ 64 µM | 4 µM | 8 µM | ≥ 64 µM | 8 µM | 1 µM | 8 µM | 2 µM | 8 µM | 1 µM |
| [C-]#[N+]c1ccc(NC(=O)Cc2ccccc2[N+](=O)[O-])cc1 | ≥ 64 µM | ≥ 64 µM | > 8 µM | > 8 µM | ≥ 64 µM | > 8 µM | – | – | – | – | – |
| [C-]#[N+]c1ccc(NC(=O)Cc2c[nH]c3ccccc23)cc1 | ≥ 64 µM | ≥ 64 µM | > 8 µM | > 8 µM | ≥ 64 µM | > 8 µM | – | – | – | – | – |
| [C-]#[N+]c1ccc(NC(=O)Cc2cc(OC)c(OC)c(OC)c2)cc1 | ≥ 64 µM | ≥ 64 µM | > 8 µM | > 8 µM | ≥ 64 µM | > 8 µM | – | – | – | – | – |
| [C-]#[N+]c1ccc(NC(=O)c2ccccc2C(F)(F)F)cc1 | ≥ 64 µM | ≥ 64 µM | > 8 µM | > 8 µM | ≥ 64 µM | > 8 µM | – | – | – | – | – |
| [C-]#[N+]c1ccc(NC(=O)c2ccc(Br)cc2)cc1 | ≥ 64 µM | ≥ 64 µM | > 8 µM | > 8 µM | ≥ 64 µM | > 8 µM | – | – | – | – | – |
| [C-]#[N+]c1ccc(NC(=O)CCc2ccc([N+](=O)[O-])cc2)cc1 | ≥ 64 µM | ≥ 64 µM | 4 µM | > 8 µM | ≥ 64 µM | > 8 µM | 2 µM | > 8 µM | 2 µM | 8 µM | 1 µM |
| [C-]#[N+]c1ccc(NC(=O)CCc2cccnc2)cc1 | ≥ 64 µM | ≥ 64 µM | > 8 µM | > 8 µM | ≥ 64 µM | > 8 µM | – | – | – | – | – |
| [C-]#[N+]c1ccc(NC(=O)Cc2cccc(OC)c2)cc1 | ≥ 64 µM | ≥ 64 µM | 4 µM | 8 µM | ≥ 64 µM | 8 µM | 2 µM | 8 µM | 2 µM | 8 µM | 2 µM |
| [C-]#[N+]c1ccc(NC(=O)Cc2ccc(OC)cc2)cc1 | ≥ 64 µM | ≥ 64 µM | 4 µM | 8 µM | ≥ 64 µM | 8 µM | 2 µM | 8 µM | 2 µM | 8 µM | 2 µM |
| [C-]#[N+]c1ccc(NC(=O)CCc2cc(OC)c(OC)c(OC)c2)cc1 | ≥ 64 µM | ≥ 64 µM | > 8 µM | > 8 µM | ≥ 64 µM | > 8 µM | – | – | – | – | – |
| [C-]#[N+]c1ccc(NC(=O)Cc2cccc([N+](=O)[O-])c2)cc1 | ≥ 64 µM | ≥ 64 µM | 4 µM | 8 µM | ≥ 64 µM | 8 µM | 4 µM | 4 µM | 2 µM | 4 µM | 4 µM |
| [C-]#[N+]c1ccc(NC(=O)Cc2c(Cl)cccc2Cl)cc1 | ≥ 64 µM | ≥ 64 µM | > 8 µM | > 8 µM | ≥ 64 µM | > 8 µM | – | – | – | – | – |
| [C-]#[N+]c1ccc(NC(=O)c2ccc(C(=O)OC)cc2)cc1 | ≥ 64 µM | ≥ 64 µM | > 8 µM | > 8 µM | ≥ 64 µM | > 8 µM | – | – | – | – | – |
| [C-]#[N+]c1ccc(NC(=O)Cc2ccncc2)cc1 | ≥ 64 µM | ≥ 64 µM | > 8 µM | > 8 µM | ≥ 64 µM | > 8 µM | – | – | – | – | – |
| CN(C)[C@@H]1C(O)=C(C(N)=O)C(=O)[C@@]2(O)C(O)=C3C(=O)c4c(O)cccc4[C@@](C)(O)[C@H]3C[C@@H]12 [TETRACYCLINE] | – | – | 1.13 µM | 1.13 µM | – | 1.13 µM | > 4.52 µM | > 4.52 µM | 0.27 µM | 1.13 µM | 4.52 µM |
| [C-]#[N+]c1ccc(NC(=O)c2cccnc2)cc1 | ≥ 64 µM | ≥ 64 µM | > 8 µM | > 8 µM | ≥ 64 µM | > 8 µM | – | – | – | – | – |
| N#Cc1ccc(NC(=O)COc2ccccc2)cc1 | ≥ 64 µM | ≥ 64 µM | > 8 µM | > 8 µM | ≥ 64 µM | > 8 µM | – | – | – | – | – |
| [C-]#[N+]c1ccc(NC(=O)Cc2ccccc2OC)cc1 | ≥ 64 µM | ≥ 64 µM | > 8 µM | > 8 µM | ≥ 64 µM | > 8 µM | – | – | – | – | – |
| [C-]#[N+]c1ccc(NC(=O)CC(C)C)cc1 | ≥ 64 µM | ≥ 64 µM | > 8 µM | > 8 µM | ≥ 64 µM | > 8 µM | – | – | – | – | – |
| [C-]#[N+]c1ccc(NC(=O)Cc2ccccc2Cl)cc1 | ≥ 64 µM | ≥ 64 µM | > 8 µM | > 8 µM | ≥ 64 µM | > 8 µM | – | – | – | – | – |
| [C-]#[N+]c1ccc(NC(=O)C(=O)c2ccccc2)cc1 | ≥ 64 µM | ≥ 64 µM | > 8 µM | > 8 µM | ≥ 64 µM | > 8 µM | – | – | – | – | – |
| [C-]#[N+]c1ccc(NC(=O)CC2CCCCC2)cc1 | ≥ 64 µM | ≥ 64 µM | > 8 µM | > 8 µM | ≥ 64 µM | > 8 µM | – | – | – | – | – |
| N#Cc1ccc(NC(=O)Cc2ccccc2)cc1 | ≥ 64 µM | ≥ 64 µM | > 8 µM | > 8 µM | ≥ 64 µM | > 8 µM | – | – | – | – | – |
| [C-]#[N+]c1ccc(NC(=O)c2ccccc2[N+](=O)[O-])cc1 | ≥ 64 µM | ≥ 64 µM | > 8 µM | > 8 µM | ≥ 64 µM | > 8 µM | – | – | – | – | – |
| [C-]#[N+]c1ccc(NC(=O)c2ccccc2)cc1 | ≥ 64 µM | ≥ 64 µM | > 8 µM | > 8 µM | ≥ 64 µM | > 8 µM | – | – | – | – | – |
